Data from the NIST ThermoML archive (doi:10.1021/acs.jced.5b00613).
± gives the expanded uncertainty stated by the source.

Assay: xn = mol fraction of the nth substance listed
Settings: Liquid, Vibrating tube method

CCCCCCCCCC [decane] + CCCCCC
mass density [kg/m3]
Settings | 1000 kPa | 5000 kPa | 10000 kPa | 20000 kPa | 30000 kPa | 40000 kPa | 50000 kPa | 60000 kPa
348.15 K, x2 = 0.1992 | – | – | 687.7 ± 0.7 | 697.1 ± 0.8 | 705.3 ± 0.8 | 712.7 ± 0.9 | 719.5 ± 0.9 | 725.8 ± 1
348.15 K, x2 = 0.3968 | – | – | 676 ± 0.8 | 685.8 ± 0.8 | 694.4 ± 0.8 | 702.2 ± 0.9 | 709.3 ± 1 | 715.9 ± 1
348.15 K, x2 = 0.4978 | – | – | 668.8 ± 0.8 | 679 ± 0.8 | 687.8 ± 0.9 | 695.7 ± 0.9 | 703 ± 1 | 709.7 ± 1
348.15 K, x2 = 0.5957 | – | – | 661.4 ± 0.8 | 671.9 ± 0.8 | 681 ± 0.9 | 689.1 ± 0.9 | 696.4 ± 1 | 703.2 ± 1.1
348.15 K, x2 = 0.7978 | – | 637.5 ± 0.7 | 644 ± 0.8 | 655.3 ± 0.8 | 665 ± 0.9 | 673.6 ± 1 | 681.4 ± 1 | 688.5 ± 1.1
373.15 K, x2 = 0.1992 | 657.7 ± 3 | 663 ± 3 | 669 ± 3 | 679.9 ± 3 | 689.3 ± 3 | 697.6 ± 3.1 | 705 ± 3.1 | 711.8 ± 3.1
373.15 K, x2 = 0.3968 | 645 ± 3 | 650.7 ± 3 | 657.1 ± 3 | 668.5 ± 3 | 678.3 ± 3 | 687 ± 3.1 | 694.8 ± 3.1 | 701.9 ± 3.1
373.15 K, x2 = 0.4978 | 636.7 ± 3 | 642.6 ± 3 | 649.4 ± 3 | 661.3 ± 3 | 671.4 ± 3 | 680.2 ± 3.1 | 688.2 ± 3.1 | 695.5 ± 3.1
373.15 K, x2 = 0.5957 | 628.1 ± 3 | 634.4 ± 3 | 641.4 ± 3 | 653.7 ± 3 | 664.1 ± 3 | 673.2 ± 3.1 | 681.3 ± 3.1 | 688.8 ± 3.1
373.15 K, x2 = 0.7978 | 608.4 ± 3 | 615.4 ± 3 | 623.2 ± 3 | 636.6 ± 3 | 647.8 ± 3.1 | 657.5 ± 3.1 | 666.2 ± 3.1 | 674 ± 3.1
423.15 K, x2 = 0.1992 | 614.4 ± 3 | 622.2 ± 3 | 630.6 ± 3 | 644.9 ± 3 | 656.8 ± 3 | 667.1 ± 3.1 | 676.2 ± 3.1 | 684.4 ± 3.1
423.15 K, x2 = 0.3968 | 599.1 ± 3 | 607.8 ± 3 | 617.1 ± 3 | 632.5 ± 3 | 645.3 ± 3.1 | 656.2 ± 3.1 | 665.7 ± 3.1 | 674.3 ± 3.1
423.15 K, x2 = 0.4978 | 589.4 ± 3 | 598.8 ± 3 | 608.6 ± 3 | 624.8 ± 3 | 637.9 ± 3.1 | 649 ± 3.1 | 658.8 ± 3.1 | 667.5 ± 3.1
423.15 K, x2 = 0.5957 | 578.9 ± 3 | 588.9 ± 3 | 599.2 ± 3 | 616.2 ± 3 | 629.8 ± 3.1 | 641.3 ± 3.1 | 651.3 ± 3.1 | 660.2 ± 3.1
423.15 K, x2 = 0.7978 | 554.6 ± 3 | 566.5 ± 3 | 578.7 ± 3 | 597.5 ± 3 | 612.4 ± 3.1 | 624.8 ± 3.1 | 635.7 ± 3.1 | 645.3 ± 3.1
463.15 K, x2 = 0.1992 | – | 586.3 ± 3 | 597.8 ± 3 | 616.1 ± 3 | 630.7 ± 3.1 | 642.9 ± 3.1 | 653.4 ± 3.1 | 662.7 ± 3.1
463.15 K, x2 = 0.3968 | – | 570.2 ± 3 | 583.3 ± 3 | 603.3 ± 3 | 618.8 ± 3.1 | 631.7 ± 3.1 | 642.8 ± 3.1 | 652.7 ± 3.1
463.15 K, x2 = 0.4978 | – | 559.5 ± 3 | 573.5 ± 3 | 594.6 ± 3 | 610.7 ± 3.1 | 624.1 ± 3.1 | 635.5 ± 3.1 | 645.6 ± 3.1
463.15 K, x2 = 0.5957 | – | 547.9 ± 3 | 563.1 ± 3 | 585.4 ± 3 | 602.3 ± 3.1 | 616 ± 3.1 | 627.6 ± 3.1 | 637.9 ± 3.2
463.15 K, x2 = 0.7978 | – | 521.1 ± 3 | 539.4 ± 3 | 565.1 ± 3 | 583.8 ± 3.1 | 598.5 ± 3.1 | 611 ± 3.1 | 621.8 ± 3.2
